Data set [1] relates to HT-29. The data set can be described thus: Induction of apoptosis in human HT-29 cells assessed as increase in histone associated DNA fragmentation after 48 hrs by ELISA. It counts as functional, cell-based. In general terms: An ELISA detects its analyte on a solid surface through an enzyme-linked reagent.
Data set [2] is described as follows: Cytotoxicity against human HS27 cells assessed as reduction in cell viability up to 100 uM after 48 hrs by MTT assay. It counts as toxicity, cell-based. To be noted: hs27, 48 h. (Tetrazolium dyes change colour on reduction, which living cells bring about.)
Data set [3] has as its system HT-29. The data set can be described thus: (§1) Antiproliferative activity against human HT-29 cells after 48 hrs by [methyl-3H]-thymidine incorporation assay. It counts as functional, cell-based. For orientation: Dividing cells build labelled thymidine or BrdU into new DNA.
Data set [4] is described as follows: as §1. Format: functional, cell-based. To be noted: HT-29, 48 h.
A short description of data set [5]: Cell cycle arrest in human HT-29 cells assessed as accumulation in G1 phase at 9.8 uM after 24 hrs by propidium iodide staining-based flow cytometry. Format: functional.
The nature of data set [6]: Cell cycle arrest in human HT-29 cells assessed as accumulation in G1 phase at 7.4 uM after 24 hrs by propidium iodide staining-based flow cytometry. It counts as functional.
Data set [7] is described as follows: Cytotoxicity against human PANC1 cells assessed as reduction in cell viability after 48 hrs by MTT assay. Format: functional, cell-based. To be noted: PANC-1, 48 h.
The nature of data set [8]: Cytotoxicity against human HT-29 cells assessed as reduction in cell viability after 48 hrs by MTT assay. To be noted: HT-29, 48 h. It counts as functional, cell-based.
Data set [9] in a line: Cytotoxicity against human MCF7 cells assessed as reduction in cell viability after 48 hrs by MTT assay. It counts as functional, cell-based. To be noted: MCF7, 48 h.

pIC50: −log10 of the molar value. Activity calls are given as the source filed them. The calls are words filed in the database; no cut-off is given here.

In general, pIC50 refers to the IC50 on a negative log10 scale, so that one unit is a factor of ten. For the compound `CC[C@]12CCCN3CCc4c(n(c5ccccc45)[C@@H](c4ccc(O)c5c4N=C4CC[C@]6(CC)CCCN7CC[C@@]45[C@@H]76)C1)[C@@H]32`, the Activity entry was “Dose-dependent effect” in data set [1] and “Non-Toxic” in data set [2]. Also, the inhibition result in data set [3] is “Dose-dependent effect”. For the same compound, the pIC50 in [4] is 5.64; in [7] it was 4.55; in data set [8], 5.31; in data set [9] it was 4.26. The outcome in [5] and in [6] was Active.

The values are drawn from ChEMBL document CHEMBL3856266, “Melodinine V, an antitumor bisindole alkaloid with selective cytotoxicity from Melodinus henryi” (Bioorg Med Chem Lett, 2016).
